Patent US20040076974A1, “Liver necrosis predictive genes” (priority 2002, published 2004)
Values joined by “and” are separate entries in the source; they are usually repeats but may differ in a detail not shown here. Equal values may be shown once. Read-outs that look alike come from different tables or passages of the source.

What was measured:
[1] = tested on: toxicologically relevant rat genes (rat CT array)
Sprague Dawley rats = settings: rat; for Score (histopathology liver necrosis severity score): Sprague Dawley, 72 h; for Score (histopathology liver necrosis severity score) / Liver Necrosis: ip
Procedure: Sprague Dawley rats Crl:CD from Charles River, Raleigh, N.C. were divided into treated rats that receive a specific concentration of the compound (see Table 1) and. control rats that only received the vehicle in which the compound is mixed (e.g., saline).
At specified timepoints (6 h, 24 h and 72 h) after administration (intraperitoneal route) of the compound, a set number of rats (usually 3 control and 3 treated) were euthanized and tissues collected. Each, rat was heavily sedated with an overdose of CO2 by inhalation and a maximum amount of blood drawn. Exsanguination of the rat by this drawing of blood kills the rat. The method of collecting the tissues is very important and ensures preserving the quality of the mRNA in the tissues. The body of the rat was then opened up and prosectors rapidly removed the tissues (including) and immediately placed them into liquid nitrogen. […] The organs/tissues were then packaged into well-labeled plastic freezer quality bags and stored at −80 degrees until needed for isolation of the mRNA from a portion of the organ/tissue sample.
Histopathology scores for each animal (assigned on a compound-dose basis as indicated in Table 1) were entered with gene expression data by using the GeneSpring™ ‘Drawn Gene’ function. Correlations between the histopathology scores and gene expression were conducted with the distance measures listed below:
Toxicity classifications were entered for training and test set as a parameter column. Toxicity, as defined by observation of necrosis in the at 72 hours after treatment, was entered as a “yes” or “no” for each animal in a compound-dose group. Additionally, a parameter column for random histopathology classification was designated. This was done by randomly assigning the same number of “yes” and “no” calls to the individual animals.

[2] = 24 h, dose 1000, listed as APAP

## CC(=O)Nc1ccc(O)cc1 [acetaminophen]
[1]; 24 h
  Aflatoxin B1 aldehyde reductase expression (treatment/control): 3.687 and 4.607 and 5.763
[1]; [2]
  3-hydroxyisobutyrate dehydrogenase expression (treatment/control): 0.8093 and 0.6875 and 0.5181
  14-3-3 zeta expression (treatment/control): 1.279 and 1.34 and 2.193
  25-DX expression (treatment/control): 1.304 and 1.667 and 1.897
  60S ribosomal protein L6 expression (treatment/control): 1.31 and 2.123 and 2.39
  Alpha 1 - inhibitor III expression (treatment/control): 0.4712 and 0.4696 and 0.2941
  Alpha-2-macroglobulin expression (treatment/control): 0.5487 and 0.4873 and 0.3551
  Apolipoprotein CIII expression (treatment/control): 0.702 and 0.753 and 0.464
  Bax (alpha) expression (treatment/control): 1.285 and 1.306 and 1.621
  Calpactin I heavy chain expression (treatment/control): 1.347 and 1.282 and 1.692
  Carbamyl phosphate synthetase I expression (treatment/control): 0.7736 and 0.7076 and 0.6953
  Carbonyl reductase expression (treatment/control): 1.218 and 1.144 and 1.992
  Cofilin expression (treatment/control): 0.9081 and 0.9679 and 1.261
  DNA polymerase beta expression (treatment/control): 0.8811 and 1.223 and 1.54
  Elongation factor-1 alpha expression (treatment/control): 1.174 and 1.533 and 1.746
  Endogenous retroviral sequence, 5′ and 3′ LTR expression (treatment/control): 1.114 and 1.112 and 1.648
  Enolase alpha expression (treatment/control): 1.382 and 2.619 and 2.308
  Epidermal growth factor expression (treatment/control): 0.7557 and 0.7312 and 0.6935
  Extracellular-signal-regulated kinase 1 expression (treatment/control): 0.452 and 0.4073 and 0.261
  Fas antigen expression (treatment/control): 1.77 and 1.618 and 2.162
  Gadd153 expression (treatment/control): 1.15 and 1.234 and 2.2302
  Glucose-regulated protein 78 expression (treatment/control): 1.949 and 2.017 and 1.914
  Hepatic lipase expression (treatment/control): 0.5231 and 0.4276 and 0.3047
  ID-1 expression (treatment/control): 1.004 and 1.038 and 1.388
  IgE binding protein expression (treatment/control): 1.117 and 1.131 and 1.528
  IkB-a expression (treatment/control): 1.268 and 1.662 and 1.76
  Insulin-like growth factor binding protein 3 expression (treatment/control): 0.5707 and 0.5952 and 0.4059
  Liver fatty acid binding protein expression (treatment/control): 0.4243 and 0.4268 and 0.229
  MAP kinase kinase expression (treatment/control): 1.017 and 1.243 and 1.361
  Macrophage inflammatory protein-1 alpha expression (treatment/control): 1.158 and 1.138 and 1.685
  Matrix metalloproteinase-1 expression (treatment/control): 1.41 and 1.586 and 2.447
  Melanoma-associated antigen ME491 expression (treatment/control): 1.011 and 1.114 and 1.656
  Monocyte chemotactic protein receptor (CCR2) expression (treatment/control): 1.194 and 1.282 and 1.728
  NADPH quinone oxidoreductase-1 (DT-diaphorase) expression (treatment/control): 2.511 and 2.716 and 4.842
  Nucleoside diphosphate kinase beta isoform expression (treatment/control): 1.516
  Organic anion transporter 3 expression (treatment/control): 0.7554 and 0.5816 and 0.5461
  Organic cation transporter 3 expression (treatment/control): 1.215 and 1.663 and 2.064
  Ornithine decarboxylase expression (treatment/control): 1.918 and 2.163 and 3.092
  Phase-1 RCT 252 expression (treatment/control): 0.7905 and 0.6256
  Phase-1 RCT-12 expression (treatment/control): 1.884
  Phase-1 RCT-33 expression (treatment/control): 0.7278 and 0.4867
  Phase-1 RCT-36 expression (treatment/control): 0.9342 and 0.7084
  Phase-1 RCT-37 expression (treatment/control): 1.525 and 1.704
  Phase-1 RCT-38 expression (treatment/control): 0.8079 and 0.6659 and 0.4284
  Phase-1 RCT-40 expression (treatment/control): 0.3766
  Phase-1 RCT-48 expression (treatment/control): 0.6762 and 0.5881
  Phase-1 RCT-65 expression (treatment/control): 1.498
  Phase-1 RCT-68 expression (treatment/control): 2.006
  Phase-1 RCT-72 expression (treatment/control): 1.676
  Phase-1 RCT-78 expression (treatment/control): 0.6314 and 0.4384
  Phase-1 RCT-83 expression (treatment/control): 0.6151 and 0.4373 and 0.3263
  Phase-1 RCT-88 expression (treatment/control): 0.5934 and 0.6891 and 0.4014
  Phase-1 RCT-92 expression (treatment/control): 0.6478 and 0.6327 and 0.3995
  Phase-1 RCT-102 expression (treatment/control): 0.4854 and 0.3992 and 0.2737
  Phase-1 RCT-109 expression (treatment/control): 2.054 and 2.291
  Phase-1 RCT-123 expression (treatment/control): 0.983
  Phase-1 RCT-127 expression (treatment/control): 0.99 and 1.472
  Phase-1 RCT-137 expression (treatment/control): 0.72 and 0.8264 and 0.5868
  Phase-1 RCT-145 expression (treatment/control): 1.2 and 1.522 and 2.335
  Phase-1 RCT-152 expression (treatment/control): 1.202 and 1.996 and 2.355
  Phase-1 RCT-154 expression (treatment/control): 2.226
  Phase-1 RCT-162 expression (treatment/control): 1.476
  Phase-1 RCT-168 expression (treatment/control): 0.7401 and 0.471
  Phase-1 RCT-180 expression (treatment/control): 1.523 and 1.839
  Phase-1 RCT-181 expression (treatment/control): 0.6749
  Phase-1 RCT-185 expression (treatment/control): 0.5075 and 0.4368 and 0.3225
  Phase-1 RCT-191 expression (treatment/control): 1.498 and 2.514
  Phase-1 RCT-192 expression (treatment/control): 1.606 and 1.812
  Phase-1 RCT-205 expression (treatment/control): 1.793
  Phase-1 RCT-213 expression (treatment/control): 1.607 and 2.134
  Phase-1 RCT-214 expression (treatment/control): 0.7129 and 0.7249 and 0.4326
  Phase-1 RCT-242 expression (treatment/control): 1.936
  Phase-1 RCT-258 expression (treatment/control): 1.198 and 1.289 and 1.628
  Phase-1 RCT-264 expression (treatment/control): 0.4839 and 0.3686
  Phase-1 RCT-271 expression (treatment/control): 0.5952
  Phase-1 RCT-295 expression (treatment/control): 1.409 and 1.586 and 1.993
  Phase-1 RCT-296 expression (treatment/control): 0.4087 and 0.2215 and 0.347
  Pyruvate kinase, muscle expression (treatment/control): 1.015 and 0.9969 and 1.833
  Ref-1 expression (treatment/control): 1.85 and 2.112 and 3.617
  Ribosomal protein L13A expression (treatment/control): 2.348 and 2.582
  Ribosomal protein S8 expression (treatment/control): 1.864 and 2.055
  Sodium/bile acid cotransporter expression (treatment/control): 0.7685 and 0.5902 and 0.8858
  Superoxide dismutase Mn expression (treatment/control): 1.274 and 1.178 and 1.931
  T-cell cyclophilin expression (treatment/control): 0.8846 and 1.322 and 1.491
  Thymosin beta-10 expression (treatment/control): 1.285 and 1.383 and 1.788
  Transthyretin expression (treatment/control): 0.427 and 0.4938 and 0.34
  Ubiquitin conjugating enzyme (RAD 6 homologue) expression (treatment/control): 0.9549 and 1.282 and 1.558
  Uncoupling protein 2 expression (treatment/control): 1.201 and 1.111 and 1.462
  c-H-ras expression (treatment/control): 1.118 and 1.069 and 0.9092
  p53 expression (treatment/control): 0.8979 and 1.176 and 1.584
  {Ribosomal protein L6} expression (treatment/control): 1.978 and 2.321
[1]; rat, in vivo
  Multidrug resistant protein-1 expression (treatment/control): 1.241 and 1.202 and 1.889
  Paraoxonase 1 expression (treatment/control): 0.5292 and 0.4965 and 0.3855
Sprague Dawley rats; in vivo, 250 mg/kg
  Score (histopathology liver necrosis severity score): 1
  Liver Necrosis: no
Sprague Dawley rats; in vivo, 1000 mg/kg
  Score (histopathology liver necrosis severity score): 2
  Liver Necrosis: Yes
Sprague Dawley rats; in vivo
  toxicity at the high dose: produced toxicity
Sprague Dawley rats; low dose of Table 1, liver necrosis at 72 hours
  toxicity at the low dose: not at the low dose
